These results are taken from patent US5415869A, “Taxol formulation” (The Research Foundation of State University of New York, priority 1993, dated 1995).

By IC50 is commonly meant the concentration needed to halve the response being measured. Low readings indicate greater potency, high ones weaker potency.

One data set deals with 9L rate gliosarcoma. The data set is described as follows: Cytostatic activity in vitro, 9L. It counts as cell-based, rat. The settings on record: 0.1% DMSO vs drug dissolved directly in serum-containing growth medium. The text has this:
(§1) FIG. 7 is a plot of cell lines versus IC50 which compares the growth-inhibitory properties of taxol/liposomes to those of free taxol. Cells were placed at a density of 2×10^4 /ml in multiwell plates and allowed to adhere overnight. Triplicate wells were exposed to various concentration of taxol, either added as liposomes (solid bar), as a 100× concentrated stock in DMSO (stippled bar), or absorbed to serum proteins (hatched bar) in the absence of organic solvent. […] Experiments were repeated at least twice. Cell lines are as follows: Colon-26: murine colon carcinoma; B16: murine melanoma; B16F10: highly-metastatic variant of B16 murine melanoma; L1210: murine leukemia; 9L: rat gliosarcoma; A12la, Hcy-lb, and A90: human ovarian tumor cell lines.

Another data set concerns metastatic breast cancer. The settings on record: phase II, pretreated patients; cited from earlier work.
In data set [1] the test system is C-26, a murine colon tumor line. The data set is described as follows: Cytostatic activity in vitro, C-26. The data set is classed as cell-based.
From the text: as §1

Data set [2] deals with A121a, a human ovarian tumor line. The data set is described as follows: Cytostatic activity in vitro, A121a. The data set is classed as cell-based. The settings on record: 72 hr.
From the text: as §1

The test system of the next data set is tumor cell lines. In words: Cytostatic activity in vitro, variety of tumor cell lines. It counts as cell-based. The settings on record: across tumor cell lines.
From the text: as §1

The next data set has as its system human tumor lines. The data set is described as follows: Cytostatic activity in vitro, human tumor lines. The data set is classed as cell-based. The settings on record: human tumor lines more sensitive than C-26.
From the text: as §1

Data set [3] relates to Colon-26 (C-26), a murine colon tumor model. In words: Antitumor activity in one dose, s.c. Colon-26. The data set is classed as in vivo, BALB/c mice.
Description: Subcutaneous Colon-26 tumors were initiated and checked daily. When the tumor was measurable (day 8), a single intravenous bolus dose of taxol was given, either in Cremophor EL®/ethanol (Diluent 12) or in liposomes (indicated by the filled circle along the abscissa). Untreated controls received injections of equivalent volumes of saline or Diluent 12 (diluted 1:3) without taxol (panel A). […]
(§3) In all experiments, the tumor volume of each animal was measured frequently, and the data was subjected to statistical analysis using an BMDP 1L program. The median time required for the tumor to reach 1500 mm^3 was determined for each treatment group (as indicated by the insert). […]
Subcutaneous tumors on the left flank were initiated by injection of 10^6 viable cells in a volume of 0.1 ml. […] The dose per mouse was adjusted on the basis of its weight, determined at the time of treatment. […] Animal weight and tumor volume was measured five times weekly until the tumor volume reached 2000 mm^3, at which time animals were sacrificed for humane reasons.
The test system is the same in data set [4]. The data set is described as follows: Antitumor activity in four doses, s.c. Colon-26. The data set is classed as in vivo, BALB/c mice. The settings on record: 4 i.v. doses.
Description: Subcutaneous Colon-26 tumors were initiated. When the tumor was measurable (day 7), intravenous treatment was initiated and was repeated on days 8, 12, and 13 (as indicated by the filled circles along the abscissa). Untreated controls received injections of saline or Diluent 12 (diluted 1:3) without taxol (panel A). Treatment with liposome-based taxol formulations consisted of 20, 30, or 40 mg/kg doses of the following: taxol, and, PG, and PC multilamellar vesicles ("MLV") (B), taxol, PG, and PC SUV (C), or taxol, PEG-DPPE, and PC SUV (D). Alternatively, free taxol in Diluent 12 (diluted 1:3 with saline), was administered at doses of 10, 20, or 30 mg/kg (E). […] For humane reasons, animals were sacrificed when tumor volume exceeded 2000mm^3.
as §3
Subcutaneous tumors on the left flank were initiated by injection of 10^6 viable cells in a volume of 0.1 ml. […] The dose per mouse was adjusted on the basis of its weight, determined at the time of treatment. […] Animal weight and tumor volume was measured five times weekly until the tumor volume reached 2000 mm^3, at which time animals were sacrificed for humane reasons. […]
For data set [5], the system named is healthy BALB/c female mice. In words: Maximum Tolerated Dose / toxicity in healthy mice. The data set is classed as in vivo. To be noted: i.v., single dose. How it is done: (§2) The Maximum Tolerated Dose ("MTD") for taxol-liposome formulations administered via the intravenous route was determined in healthy BALB/c female mice. Survey experiments to define the MTD were performed with two animals per group. Doses were escalated in 2-fold increments, starting at 5 mg/kg. Drug effects were determined by close observation of weight changes and survival. The highest non-lethal dose of taxol causing >10% weight loss within one week of cessation of dosing was defined as the MTD. Animals showing weight loss exceeding 20% were sacrificed, as changes of this magnitude often indicate lethal toxicity (E. Mayhew, unpublished observations). After completing the survey experiments, the approximate MTD was refined further using 3 groups of 8 mice.

Data set [6] is described as follows: Maximum Tolerated Dose / toxicity in healthy mice. To be noted: mouse, in vivo, iv. It counts as in vivo. The method, then:
as §2

The next data set has as its system A90 human ovarian tumor. The data set is described as follows: Cytostatic activity in vitro, A90. The data set is classed as cell-based. To be noted: 0.1% DMSO vs drug dissolved directly in serum-containing growth medium.
From the text: as §1

The subject of data set [7] is advanced and refractory ovarian cancer. To be noted: phase II, heavily-pretreated patients; cited from earlier work.
Data set [8] relates to Colon-26 (C-26), a murine colon tumor model. In words: Antitumor activity in nine doses, s.c. Colon-26.
Description: FIGS. 3A-C show plots of mean tumor size versus days after tumor implantation which indicates the antitumor effect of nine doses of free- or liposomal taxol on Colon-26 tumors. Subcutaneous Colon-26 tumors were initiated. When the tumor was measurable (day 8), treatment was initiated. Animals were dosed 3 times weekly, and treatment was given for 3 weeks, as indicated by the filled circle along the abscissa. Untreated controls received injections of saline or Diluent 12 (diluted 1:3) without taxol (panel A). Treatment with liposome-based taxol formulations consisted of 10, 40, or 60 mg/kg doses with taxol, PG, and PC SUV (B). Alternatively, free taxol in Diluent 12 (diluted 1:3 with saline), was administered at doses of 10, 20, or 30 mg/kg (C). […] Each treatment group consisted of ten animals. For humane reasons, animals were sacrificed when tumor volume exceeded 2000 mm^3.
In all experiments, the tumor volume of each animal was measured frequently, and the data was subjected to statistical analysis using an BMDP 1L program. The median time required for the tumor to reach 1500 mm^3 was determined for each treatment group (as indicated by the insert).
The viability of cells was >80% by trypan blue exclusion.
Subcutaneous tumors on the left flank were initiated by injection of 10^6 viable cells in a volume of 0.1 ml. Mice were then randomized into various treatment groups and numbered. The dose per mouse was adjusted on the basis of its weight, determined at the time of treatment. Treatment was started 7 or 8 days after tumor implantation, and consisted of i.v. injections through the tail vein. Buffer or Diluent 12 without taxol were used as control treatments. Animal weight and tumor volume was measured five times weekly until the tumor volume reached 2000 mm^3, at which time animals were sacrificed for humane reasons. Tumor volume was determined by measuring three orthogonal diameters of the tumor, and was calculated as 1/2 of the product of the diameters (Begg, A. C., "Principles and Practices of the Tumor Growth Delay Assay," Rodent Tumor (R. F. Kallman (ed.)), pp. 114-121, New York:Pergammon Press, (1987), which is hereby incorporated by reference). The data was analyzed for statistical significance using the BMDP 1L program (BMDP Statistical Software Inc.; Los Angeles, Calif.).
Where [9] appears, read: free taxol 20 mg/kg (cumulative 180 mg/kg).

Read-outs that look alike come from different tables or passages of the source.

As for `CC(=O)O[C@H]1C(=O)[C@@]2(C)[C@H]([C@H](OC(=O)c3ccccc3)[C@]3(O)C[C@H](OC(=O)[C@H](O)[C@@H](NC(=O)c4ccccc4)c4ccccc4)C(C)=C1C3(C)C)[C@]1(OC(C)=O)CO[C@@H]1C[C@@H]2O` [taxol], the “enhancement of free taxol activity by DMSO” value with 9L rate gliosarcoma and in the data set on A90 human ovarian tumor was “approximately 8 fold” each time. The overall response rate in the data set with metastatic breast cancer was 56%. The “effect of DMSO on cytostatic activity” value in data set [1] (C-26) is on record as “not affected by DMSO”. Further, the 50% inhibitory concentration (IC50) in data set [1] (Mus musculus, C-26, 72 hr) was 90 ± 10 µM; in data set [2], 1.5 ± 0.7 µM. Also, the “variation of sensitivity to free taxol” value with tumor cell lines is reported as approximately 100 fold. For the same compound, the “sensitivity to taxol relative to C-26” value in the data set on human tumor lines is given as “at least 10 fold”. Besides, the “effect on tumor growth” value is reported as “showed no effect on tumor growth” in data set [3] (single i.v. dose on day 8, free taxol 15, 25, 30 mg/kg, liposomes 25, 35, 45 mg/kg, vs controls) and “showed no effect on tumor progression” in [4] (days 7, 8, 12, 13, free taxol 10, 20, 30, liposomes 20, 30, 40 mg/kg per injection). Further, the “tumor growth delay, statistical significance (BMDP 1L)” value in data set [3] (single i.v. dose, time to reach 1500 mm^3) was “no significant delay in tumor growth compared to vehicle or buffer controls (p.0.05)”; in data set [4] (vs buffer or vehicle controls), “no significant delay in tumor growth at the dose levels tested, compared to buffer or vehicle controls (p>0.05)”; in [8] (9 doses, time to reach 1500 mm^3), “No dose of free taxol, up to and including lethal concentrations, had a significant effect on tumor progression”. In data set [5], the “MTD, single dose” value amounted to 30 mg/kg. Besides, the MTD in data set [6] (owing to the toxicity of Diluent 12, read-out: dose of free taxol that could be given as a single injection) is less than 35 mg/kg; in data set [6] (single dose, read-out: MTD, single dose), approximately 30 mg/kg. Also, in data set [7], the response rate is listed as 30%. In addition, the “effect on tumor progression” value in [8] (9 doses, any dose (10, 20, 30 mg/kg per injection)) is reported as “gave no delay in tumor progression at any dose”; in [8] (setting [9]), “no effect was observed on tumor progression”. The survival entry in [8] (setting [9]) is given as “most animals survived”. Also, the “tolerability of individual injections” value in data set [8] (free taxol 30 mg/kg) was “tolerated as individual injections”. In addition, the lethality result in data set [8] (free taxol 30 mg/kg per injection) is listed as “cumulatively lethal to all animals by day 21”.
